Reference: ChEMBL document CHEMBL5137022, “Antitumor Activity of Rutaecarpine in Human Colorectal Cancer Cells by Suppression of Wnt/β-Catenin Signaling” (J Nat Prod, 2022)

Assays:
[1] = Toxicity in BALB/c nude mouse xenografted with human LS174T cells assessed as effect on body weight at 10 to 30 mg/kg, ip administered 3 times per week for 21 days; assay type: organism-based; settings: in vivo, 504 h, dose 10-30 mg/kg, time 21 day
SW480 = test: Antiproliferative activity against human SW480 cells harboring wild type beta-catenin assessed as reduction in cell viability measured after 72 hrs by SRB assay; assay type: functional, cell-based; settings: SW480, 72 h
LS174T = test: Antiproliferative activity against human LS174T cells harboring beta-catenin mutant assessed as reduction in cell viability measured after 72 hrs by SRB assay; assay type: functional, cell-based
CCD-18Co = test: Antiproliferative activity against human CCD-18Co cells assessed as reduction in cell viability measured after 72 hrs by SRB assay; assay type: functional, cell-based
CCD-841CoN = test: Antiproliferative activity against human CCD-841CoN cells assessed as reduction in cell viability measured after 72 hrs by SRB assay; assay type: functional, cell-based
HCT-116 = test: Antiproliferative activity against human HCT-116 cells harboring beta-catenin mutant assessed as reduction in cell viability measured after 72 hrs by SRB assay; assay type: functional, cell-based; settings: HCT-116, 72 h
HCT-15 = test: Antiproliferative activity against human HCT-15 cells harboring wild type beta-catenin assessed as reduction in cell viability measured after 72 hrs by SRB assay; assay type: functional, cell-based; settings: HCT-15, 72 h
RKO = test: Antiproliferative activity against human RKO cells harboring wild type beta-catenin assessed as reduction in cell viability measured after 72 hrs by SRB assay; assay type: functional, cell-based

Row | IC50 (SW480) | IC50 (HCT-116) | IC50 (HCT-15) | SMILES | Activity [1] | IC50 (LS174T) | IC50 (CCD-18Co) | IC50 (CCD-841CoN) | IC50 (RKO)
1 | 3.8 µM | 0.6 µM | 2.7 µM | CCc1c2c(nc3ccc(OC(=O)N4CCC(N5CCCCC5)CC4)cc13)-c1cc3c(c(=O)n1C2)COC(=O)[C@]3(O)CC [IRINOTECAN] | Toxic | 0.7 µM | 18.5 µM | 13.2 µM | 0.7 µM
2 | 0.8 µM | 0.5 µM | 1.8 µM | COc1cc([C@@H]2c3cc4c(cc3[C@@H](O[C@@H]3O[C@@H]5CO[C@@H](C)O[C@H]5[C@H](O)[C@H]3O)[C@H]3COC(=O)[C@H]23)OCO4)cc(OC)c1O [ETOPOSIDE] |  | 0.9 µM | 20.3 µM | 7.6 µM | 1.9 µM
